Test results taken from patent publication US20240123076A1, “UNSATURATED DENDRIMERS COMPOSITIONS, RELATED FORMULATIONS, AND METHODS OF USE THEREOF” (The Board of Regents of The University of Texas System, priority 2021, published 2024).
“Also recorded” adds a separate entry of the source.

Key:
C57BL/6 mice [1] = experiment: In vivo luciferase mRNA delivery (bioluminescence imaging, liver); conditions: 4-component LNP, tail vein, 0.25 mg/kg Luc mRNA, 6 h
Procedure: Ionizable lipid(s), DOPE, cholesterol, DMG-PEG2k were dissolved in ethanol as noted below in S2, and the Luc mRNA was diluted in 10 mM citric acid-sodium citrate buffer (pH 4.4) at the desired dosage. The lipid mixture and nucleic acid dilution were rapidly combined at a volumetric ratio of 3:1 nucleic acid:lipid mix. The nanoparticles were dialyzed against 1×PBS in Pur-A-Lyzer midi dialysis chambers (Sigma-Aldrich, WMCO 3.5 kDa) for 2 hours prior to injection.
All experiments were approved by the Institutional Animal Care & Use Committee (IACUC) of The University of Texas Southwestern Medical Center and were consistent with local, state and federal regulations as applicable. Female C57BL/6 mice (18-20 g) were injected with LNP formulations via tail vein injection (5 ug of mRNA, 0.25 mg/kg). After 6 h, the luciferase expression was evaluated by live animal bioluminescence imaging. Animals were anesthetized under isofluorane, and D-Luciferin (150 mg/kg) was introduced by intraperitoneal injection. Then, the luciferase activity was imaged, and ex vivo imaging was performed on systemic organs after resection on an IVIS Lumina system (Perkin Elmer). The images were processed using Living Image analysis software (Perkin Elmer).

IGROVI cells = experiment: Cellular uptake and intracellular trafficking of Cy5-labeled mRNA LNPs (confocal imaging); type: cell-based; conditions: for co-localization of Cy5 mRNA with lysosomes: 4 h and 24 h after incubation; for cellular uptake (internalization) of Cy5 Luc mRNA LNPs: at 4 hours and 24 hours
Procedure: Flash chromatography was performed on a Teledyne Isco CombiFlash Rf-200i chromatography system equipped with UV-Vis and evaporative light scattering detectors (ELSD) or manually using 60 Å, 40-63 um Silica (Sorbtech) or activated, neutral Aluminum Oxide (Sigma-Aldrich). Particle sizes and PDI were measured by Dynamic Light Scattering (DLS) using a Malvern Zetasizer Nano ZS (He-Ne laser, λ=632 nm). Confocal microscopy was conducted using a Zeiss LSM-710 laser scanning confocal microscope and data analyzed with the Zeiss LSM-710 software.
Cellular uptake and intracellular trafficking was further examined, in vitro experiments were performed using Cy5-labeled mRNA LNPs. […] The progression of Cy5 mRNA was further tracked from the cell membrane to endosomes to lysosomes and quantified co-localization of Cy5 mRNA with lysosomes. […] The overall results connected chemical structure to factors including cellular uptake, endosomal escape, and intracellular trafficking.

C57BL/6 mice [2] = experiment: Biodistribution of Cy5 Luc mRNA LNPs (ex vivo imaging); type: in vivo; conditions: IV, 0.25 mg/kg, 6 hours, ex vivo organs
[3] = Lipid fusion assay (FRET); conditions: PBS pH 5.5, 37° C., 5 min
Procedure: Endosome mimicking anionic liposomes were prepared by mixing DOPS:DOPC:DOPE:NBD-PE:N-Rh-PE (25:25:48:1:1 molar ratio) in CHCl3 at a fixed total lipid concentration of 1 mM. Afterwards, the film was created by rotary evaporation of the solution, followed by 2 h of vacuum drying to produce a thin lipid film.
LNPs were formulated with the in vivo method. 100 uL PBS (pH 5.5) was added to each well in a black 96-well plate (n=3 per sample), and 1 μL of endosome mimicking anionic liposomes (1 mM) was added to each well. Endosome mimicking anionic liposomes in PBS served as the negative control (Fmin), and the endosome mimic lipids incubated with 2% Triton-X in PBS solutions were set as positive control (Fmax). 10 μL of LNPs being tested were added to the wells (n=3). After incubating at 37° C. for 5 min., fluorescence measurements (F) were conducted on a microplate reader at Ex/Em=465/520 nm. The lipid fusion (%) was calculated as (F−Fmin)/(Fmax−Fmin)*100%.
Fluorescence resonance energy transfer (FRET)-based assay was employed to determine the LNP's ability to disrupt and fuse with the endosomal membrane (FIG. 4). DOPE-conjugated FRET probes (NBD-PE and N—Rh-PE) were formulated into endosome-mimicking nanoparticles. NBD is normally quenched by the rhodamine, but the NBD signal would rise if disruption of the membrane occurred. […]

IGROV-1 cells = experiment: In vitro luciferase expression of Luc mRNA LNPs; type: cell-based; conditions: IGROV-I cells, 25 ng mRNA per well, 24 h; lipid:DOPE:cholesterol:DMG-PEG2k 15:15:30:3
Procedure: Ionizable lipid, DOPE, cholesterol, DMG-PEG2k were dissolved in ethanol as noted below (S2, base formulation). Firefly Luciferase (Luc) mRNA was diluted in 10 mM citric acid-sodium citrate buffer (pH 4.4). The lipid mixture and nucleic acid solution were rapidly combined at a volumetric ratio of 3:1 nucleic acid:lipid mix. Afterwards, the LNP formulations were diluted with 1×PBS to 1 ng/uL concentration.
IGROV-1 cells were seeded into white 96-well plates at a density of 1×10^4 cells per well the day before transfection with media. Day of transfection, the media was replaced with 200 μL of fresh media. Then, 25 μL of the Luc mRNA formulations were added with a fixed dose of 25 ng mRNA per well. After incubation for another 24 hours, ONE-Glo+ Tox kits (Promega) were used to detect Luc mRNA expression and cytotoxicity.

SMILES	co-localization of Cy5 mRNA with lysosomes (IGROVI cells)	cellular uptake (internalization) of Cy5 Luc mRNA LNPs (IGROVI cells)	biodistribution of Cy5 Luc mRNA (ROI values) (C57BL/6 mice [2])	other results
CC/C=C\C/C=C\CSC(C)C(=O)OCCOC(=O)CCN(CCCN(C)CCCN(CCC(=O)OCCOC(=O)C(C)SC/C=C\C/C=C\CC)CCC(=O)OCCOC(=O)C(C)SC/C=C\C/C=C\CC)CCC(=O)OCCOC(=O)C(C)SC/C=C\C/C=C\CC (centres unmarked) [4A3-8/2]	–	–	–	Luc mRNA expression in vivo (mRNA delivery) (C57BL/6 mice [1]): lower Luc expression compared to its alkyl partner
CC(C)=CCCC(C)CCSC(C)C(=O)OCCOC(=O)CCN(CCCN(C)CCCN(CCC(=O)OCCOC(=O)C(C)SCCC(C)CCC=C(C)C)CCC(=O)OCCOC(=O)C(C)SCCC(C)CCC=C(C)C)CCC(=O)OCCOC(=O)C(C)SCCC(C)CCC=C(C)C (centres unmarked) [4A3-Cit]	reduced colocalization with lysosomes	effectively internalized	no statistical difference; also recorded: did not change the biodistribution	speed of internalization of Cy5 Luc mRNA LNPs (IGROVI cells; at 4 hours, versus saturated 4A3-SC8 LNPs): internalizing slightly faster; Luc mRNA expression in vivo (mRNA delivery) (C57BL/6 mice [1]; 0.25 mg/kg): performed better than 4A3-Ne; also recorded: highest efficacy; lipid fusion with the model endosomal membrane [3]: efficacious; also recorded: highest lipid fusion ability
CCCCCCCCSC(C)C(=O)OCCOC(=O)CCN(CCCN(C)CCCN(CCC(=O)OCCOC(=O)C(C)SCCCCCCCC)CCC(=O)OCCOC(=O)C(C)SCCCCCCCC)CCC(=O)OCCOC(=O)C(C)SCCCCCCCC (centres unmarked) [4A3-SC8, reference compound]	reduced colocalization with lysosomes	effectively internalized	no statistical difference	–
C/C=C/CCCSC(C)C(=O)OCCOC(=O)CCN(CCCN(C)CCCN(CCC(=O)OCCOC(=O)C(C)SCCC/C=C/C)CCC(=O)OCCOC(=O)C(C)SCCC/C=C/C)CCC(=O)OCCOC(=O)C(C)SCCC/C=C/C (centres unmarked) [4A3-4T]	–	–	–	Luc mRNA expression (in vitro Luc mRNA delivery) (IGROV-1 cells): most potent
